Source: patent publication US8609695B2, “Methods of treating and/or suppressing insulin resistance” (Endorecherche, Inc., priority 1999, dated 2013)
Counter-ions that a name gives are not always drawn.

Key:
[1] = test system: human endometrial adenocarcinoma Ishikawa cells; assay: Alkaline phosphatase activity in Ishikawa cells (Example 11); type: cell-based; conditions: for IC50: Homo sapiens, Ishikawa, 120 h, read-out: Inhibition of 1 nM E2 stimulation of alkaline phosphatase by tested compounds IC50; for Stimulation of alkaline phosphatase by tested compounds % of 1 nM E2 stimulation: intrinsic estrogenic activity
Procedure: The human Ishikawa cell line derived from a well differentiated endometrial adenocarcinoma was kindly provided by Dr. Erlio Gurpide, The Mount Sinai Medical Center, New York, N.Y. The Ishikawa cells were routinely maintained in Eagle's Minimum Essential Medium (MEM) containing 5% (vol/vol) FBS and supplemented with 100 U/ml penicillin, 100 μg/ml streptomycin, 0.1 mM Non-essential Amino Acids solution. Cells were plated in Falcon T75 flasks at a density of 1.5×10^6 cells at 37 C.
Twenty four hours before the start of an experiment, the medium of near confluent Ishikawa cells was replaced by fresh estrogen-free basal medium (EFBM) consisting of a 1:1 (v:v) mixture of phenol red-free Ham's F-12 and Dulbecco's Modified Eagle's Medium (DMEM) supplemented with 100 U/mL penicillin, 100 μg/mL Streptomycin, 2 mM glutamine, and 5% FBS treated twice with dextran-coated charcoal to remove endogenous steroids. Cells were then harvested by 0.1% pancreatin (Sigma) and 0.25 mM HEPES, resuspended in EFBM and plated in Falcon 96 well flat-bottomed microtiter plates at a density of 2.2×10^4 cells/well in a volume of 100 μl and allowed to adhere to the surface of the plates for 24 h. Thereafter, medium was replaced with fresh EFBM containing the indicated concentrations of compounds in a final volume of 200 μl. Cells were incubated for five days, with a medium change after 48 h.
At the end of the incubation period, microtiter plates were inverted and growth medium was decanted. The plates were rinsed with 200 μL by well of PBS (0.15M NaCl, 10 mM sodium phosphate, pH 7.4). PBS was then removed from the plates while carefully leaving some residual PBS, and the wash procedure was repeated once. The buffered saline was then decanted, and the inverted plates were blotted gently on a paper towel. Following replacement of the covers, the plates were placed at −80 C for 15 min followed by thawing at room temperature for 10 min. The plates were then placed on ice, and 50 μl of an ice-cold solution containing 5 mM p-nitrophenyl phosphate, 0.24 mM MgCl2, and 1 M diethanolamine (pH 9.8) was added. Plates were then warmed to room temperature, and the yellow color from the production of p-nitrophenyl was allowed to develop (8 min). Plates were monitored at 405 nm in an enzyme-linked immunosorbent assay plate reader (BIO-RAD, model 2550 EIA Reader).
Dose-response curves as well as IC50 values were calculated using a weighted iterative nonlinear squares regression.

[2] = test system: ovariectomized female rats; assay: 34-week treatment with ethynyl estradiol, EM-652.HCl, Raloxifene and DHEA, body fat (Example 7); type: in vivo, rat; conditions: OVX rats, 34 weeks
Procedure: The objective of this study was to assess the effect of a combined treatment with EM-652.HCl, and DHEA on body fat and body weight parameters in ovariectomized rats. For this purpose, ovariectomized rats received daily administration of EM-652.HCl (1 mg/kg), and DHEA (80 mg/kg) alone or in combination, for 34 weeks. EM-652.HCl was administered orally while DHEA was applied topically on dorsal skin. One group of animals was orally treated with 17-ethynylestradiol (0.1 mg/kg) and Raloxifene (EM-1105; 1 mg/kg) for comparison.
Ten to twelve week-old female Sprague-Dawley rats (Crl:CD(SD)Br) weighing approximately 235-250 g at start of treatment were used. Eighty rats were randomly distributed between 7 groups of 11 to 12 animals per group as follows: 1) Intact control; 2) OVX control; 3) OVX+EE2 (0.1 mg/kg); 4) OVX+raloxifene (1 mg/kg); 5) OVX+EM-652.HCl (1 mg/kg); 6) OVX+DHEA (80 mg/kg); 7) OVX+EM-652.HCl+DHEA. On day 1 of the study, the animals of the appropriate groups were bilaterally ovariectomized (OVX) under isoflurane anesthesia. EM-652.HCl, raloxifene and EE2 (Steraloids) were administered once daily by oral gavage as suspension in 0.4% methylcellulose (0.5 ml/rat) for 34 weeks while DHEA was applied topically once daily on dorsal skin as a solution in 50% ethanol-50% propylene glycol (0.5 ml/rat) for the same time period. Approximately 24 hours after the last dosing, overnight fasted animals were killed by exsanguination at the abdominal aorta under isoflurane anesthesia. Left and right retroperitoneal adipose tissues were collected and weighed.
After 34 weeks of treatment, individual rats under anesthesia with isoflurane had their whole body skeleton scanned using dual energy x-ray absorptiometry (DEXA; QDR 4500A, Hologic, Waltham, Mass.) and a Regional High Resolution Scan software. The body composition (including fat percentage) was determined.
Data were expressed as the means±SEM.

[3] = test system: ovariectomized female rats; assay: SERM comparison, energy balance and lipid-lipoprotein metabolism (Example 10); type: in vivo, Rattus norvegicus; conditions: OVX rats, 20 days; for Serum insulin (in words): 0.5 mg/rat; for Brown adipose tissue Lipoprotein lipase activity / Brown adipose tissue weight / Cumulative food intake / Serum glucose / Serum insulin / Serum leptin / Serum total cholesterol / Serum triglycerides / Soleus muscle Lipoprotein lipase activity / Soleus muscle weight / Total weight / VastusLateralis muscle weight / White adipose tissue inguinal Lipoprotein lipase activity / White adipose tissue inguinal weight / White adipose tissue retroperitoneal Lipoprotein lipase activity / White adipose tissue retroperitoneal weight: high carbohydrate diet, 0.5 mg/rat oral gavage
Procedure: For this purpose, tested compounds were administered by oral gavage for 20 days (0.5 mg/rat for each compound; 0.5 ml/rat) in 0.4% methylcellulose to ovariectomized female rats.
d) Diet: • During acclimation period, rats received a certified rodent diet (Lab Diet #5002, pellet) and tap water ad libitum while during study period, they received a high carbonhydrate diet (diet #3) and tap water ad libitum. The diet was composed of (g/100 g): Corn starch, 31.2; Dextrose, 31.2; Casein, 20.0; corn oil, 6.4; dl-Methionine, 0.3; Vitamine mix, 1.0; AIN-76 mineral mix, 4.9; fiber, 5.0. Rats were fasted (with access to water only) around 07 h00 the morning of their necropsy Randomization:
Test group: Seventy-seven rats were assigned to 8 groups of 9-10 rats for conduct of the study outlined below.
On day 0 of the study, rats from group 2 to 8 were ovariectomized (by bilateral flank incision) under Isoflurane anesthesia. Rats from group 1 were sham-operated.
Rats were weighed on day 0 (surgery) and then, every 2 days during study period as well as on the day of necropsy.
Food consumption was evaluated every 2 days.
In order to determine the effect of treatments on fat percentage, body composition was measured on Day 17 of the study using dual energy x-ray absorptiometry (DEXA; QDR 4500A, Hologic, Waltham, Mass.).
On day 21 of the study, approximately 24 hours after the last dosing and 6 hours of fasting, animals under Ketamine-Xylazine anesthesia were killed by exsanguination at the abdominal aorta.
Blood lipids (Total cholesterol and Triglycerides) and glucose were measured on frozen serum samples using the Boehringer Mannheim Diagnostic Hitachi 911 Analyzer (Boehringer Mannheim Diagnostic Laboratory Systems). Circulating hormones and substrates (Insulin and leptin) were measured on serum sample using the following kits: • Insulin: Linco RIA kit • Leptin: Linco RIA kit Organs and Tissues Collected
The following tissues were collected and weighed: • Muscle (right soleus and right VLM), fat (right retroperitoneal and right inguinal), and brown adipose tissue.
A piece of ˜0.1 g of all tissues (except uterus and vagina) were frozen in liquid nitrogen and kept at −80 C for later determination of lipoprotein-lipase (LPL) activity.

[4] = test system: ovariectomized female rats; assay: Uterine weight, fat and lipid, 20-day treatment (Example 13); type: in vivo, Rattus norvegicus; conditions: 20 days
Procedure: The objective of this study was to compare the effect on uterine, weight, fat and blood lipids following treatment with EM-652.HCl, ERA-923 and lasofoxifene, administered alone or in combination with EM-652.HCl, to ovariectomized female rats. For this purpose, each compound was administered orally for 20 days to ovariectomized female rats and at the end of the treatment period, the uterus and fat were collected and weighed.
d) Diet: • Certified Rodent feed (Lab Diet #5002, pellets) and tap water were provided ad libitum. Randomization:
Seventy rats were separated into 7 groups of 9 to 11 animals for conduct of the study outlined below:
Animals from groups 2 to 9 were ovariectomized under Isoflurane-induced anesthesia on Day 7 of the study.
The vehicle or tested compounds were given as suspension in 0.4% methylcellulose by oral gavage (0.5 ml/gavage/rat) from Day 2 to Day 21 of the study.
Rats were weighed on Study Day 1 and at the necropsy (SD 22).
Approximately 24 hours after the last dosing, overnight fasted rats under Isoflurane-induced anesthesia were killed by exsanguination at the abdominal aorta.
Uteri and retroperitonal adipose tissue were removed and weighed.

[5] = Ishikawa cells, five days incubation
[6] = EE2 0.1, Raloxifene 1, EM-652.HCl 1 mg/kg oral, DHEA 80 mg/kg topical
[7] = OVX rats, commercial rodent diet, 0.5 mg oral, EM-652.HCl 2.5 mg in combinations

CC/C(=C(/c1ccc(OCCN(C)C)cc1)c1cccc(O)c1)c1ccccc1 [Droloxifene]
IC50 [1]: 291 ± 115 nM
Stimulation of alkaline phosphatase by tested compounds % of 1 nM E2 stimulation [1, 5]: 23.8 ± 3.1 (7) % of 1 nM E2 stimulation

C#C[C@]1(O)CC[C@H]2[C@@H]3CCc4cc(O)ccc4[C@H]3CC[C@@]21C [EE2, 17-ethynylestradiol]
increment of body fat and retroperitoneal adipose tissue by ovariectomy [2]: prevented
Fat % ([2]; DEXA, EE2 0.1, Raloxifene 1, EM-652.HCl 1 mg/kg oral, DHEA 80 mg/kg topical): 19.8 ± 1.9%
Left retroperitoneal adipose tissue [2, 6]: 1.15 ± 0.18 g
Right retroperitoneal adipose tissue [2, 6]: 1.29 ± 0.22 g

CC/C(=C(\c1ccccc1)c1ccc(/C=C/C(=O)O)cc1)c1ccccc1 [GW-5638]
Inhibition of 1 nM E2 stimulation of alkaline phosphatase by tested compounds IC50 ([1]; Ishikawa cells, five days incubation, 1 nM E2, antiestrogenic activity): No inhibition
Stimulation of alkaline phosphatase by tested compounds % of 1 nM E2 stimulation [1, 5]: 7.75 ± 5.5 (2) % of 1 nM E2 stimulation

CC/C(=C(\c1ccc(I)cc1)c1ccc(OCCN2CCCC2)cc1)c1ccccc1 [Idoxifene]
IC50 [1]: > 1000 nM
Stimulation of alkaline phosphatase by tested compounds % of 1 nM E2 stimulation [1, 5]: 25.1 ± 1.5 (5) % of 1 nM E2 stimulation

COc1ccc(-c2sc3cc(O)ccc3c2Oc2ccc(OCCN3CCCCC3)cc2)cc1.Cl [LY 353381]
Serum insulin (in words) [3]: decreased
Brown adipose tissue Lipoprotein lipase activity [3]: 888 ± 65 μU/g protein
Brown adipose tissue weight [3]: 0.368 ± 0.031 g
Cumulative food intake [3]: 312 ± 7 g
Serum glucose [3]: 17.1 ± 0.7 mmol/L
Serum insulin [3]: 0.104 ± 0.11 nmol/L
Serum leptin [3]: 1.22 ± 0.21 ng/mL
Serum total cholesterol [3]: 1.15 ± 0.08 mmol/L
Serum triglycerides [3]: 1.23 ± 0.28 mmol/L
Soleus muscle Lipoprotein lipase activity [3]: 10.1 ± 1.0 μU/g protein
Soleus muscle weight [3]: 0.092 ± 0.002 g
Total weight [3]: 231 ± 4 g
VastusLateralis muscle weight [3]: 0.955 ± 0.20 g
White adipose tissue inguinal Lipoprotein lipase activity [3]: 559 ± 165 μU/g protein
White adipose tissue inguinal weight [3]: 0.290 ± 0.038 g
White adipose tissue retroperitoneal Lipoprotein lipase activity [3]: 1365 ± 119 μU/g protein
White adipose tissue retroperitoneal weight [3]: 0.968 ± 0.120 g

Oc1ccc2c(c1)CC[C@H](c1ccccc1)[C@@H]2c1ccc(OCCN2CCCC2)cc1 [Lasofoxifene, cis-1R-[4′-pyrrolidino-ethoxyphenyl]-2S-phenyl-6-hydroxy-1,2,3,4,-tetrahydronapthalene D-(−)-tartrate salt]
Serum insulin (in words) [3]: decreased
Brown adipose tissue Lipoprotein lipase activity [3]: 982 ± 98 μU/g protein
Brown adipose tissue weight [3]: 0.244 ± 0.022 g
Cumulative food intake [3]: 283 ± 14 g
Serum glucose [3]: 15.8 ± 1.3 mmol/L
Serum insulin [3]: 0.095 ± 0.017 nmol/L
Serum leptin [3]: 0.97 ± 0.29 ng/mL
Serum total cholesterol [3]: 1.29 ± 0.06 mmol/L
Serum triglycerides [3]: 0.81 ± 0.21 mmol/L
Soleus muscle Lipoprotein lipase activity [3]: 10.9 ± 1.5 μU/g protein
Soleus muscle weight [3]: 0.096 ± 0.003 g
Total weight [3]: 210 ± 2 g
VastusLateralis muscle weight [3]: 0.800 ± 0.048 g
White adipose tissue inguinal Lipoprotein lipase activity [3]: 801 ± 138 μU/g protein
White adipose tissue inguinal weight [3]: 0.187 ± 0.023 g
White adipose tissue retroperitoneal Lipoprotein lipase activity [3]: 1417 ± 163 μU/g protein
White adipose tissue retroperitoneal weight [3]: 0.867 ± 0.132 g
Stimulation of alkaline phosphatase by tested compounds % of 1 nM E2 stimulation [1, 5]: 18 % of 1 nM E2 stimulation
OVX-induced increase in total serum cholesterol levels ([4]; 0.5 mg): completely prevented
increase of uterine weight compared to OVX control ([4]; 0.5 mg): 62%
prevention of body weight increase induced by ovariectomy ([4]; OVX rats, 0.5 mg): 127%
Cholesterol [4, 7]: 0.95 ± 0.09 mmol/L
Final Body Weight [4, 7]: 210 ± 3 g
Uterine Weight [4, 7]: 247.4 ± 9.1 mg

CC/C(=C(\c1ccc(O)cc1)c1ccc(OCCN(C)C)cc1)c1ccccc1 [OH-Tamoxifen]
IC50 [1]: 31.9 ± 6 nM
Stimulation of alkaline phosphatase by tested compounds % of 1 nM E2 stimulation [1, 5]: 32.4 ± 2.2 (8) % of 1 nM E2 stimulation

CN(C)CCOc1ccc(/C(=C(/CCCl)c2ccccc2)c2ccc(O)cc2)cc1 [OH-Toremifene]
Stimulation of alkaline phosphatase by tested compounds % of 1 nM E2 stimulation [1, 5]: 29.6 ± 2.1 (6) % of 1 nM E2 stimulation
